One block for each compound: values may come before it.
Legend:
JNK2 [1] = molecular target: T1, JNK2 (Homo sapiens, UniProt P45984); assay: Z′-Lyte fixed time point kinase assay, JNK2; details: fixed time point biochemical kinase assay
Target sequence in this assay (P45984 whole entry): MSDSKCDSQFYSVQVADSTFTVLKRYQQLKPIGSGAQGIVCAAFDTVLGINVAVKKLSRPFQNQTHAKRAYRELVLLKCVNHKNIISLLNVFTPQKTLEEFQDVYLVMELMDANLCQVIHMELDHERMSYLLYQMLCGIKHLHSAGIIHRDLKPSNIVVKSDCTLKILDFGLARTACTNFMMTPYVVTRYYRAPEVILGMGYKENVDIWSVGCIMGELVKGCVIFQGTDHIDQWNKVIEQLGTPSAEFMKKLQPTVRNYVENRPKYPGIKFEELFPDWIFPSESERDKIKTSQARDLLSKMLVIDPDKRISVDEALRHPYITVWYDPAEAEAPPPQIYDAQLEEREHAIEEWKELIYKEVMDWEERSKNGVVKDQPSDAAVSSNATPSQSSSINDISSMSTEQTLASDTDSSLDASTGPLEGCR

[2] = tested on: panel of more than 400 kinases; assay: Kinome-wide selectivity panel; details: strong binding to EGFR, CK1, DDR1, CDK7, Aurora A and B
MM.1S cells [3] = assay: Proliferation / growth rate inhibition assay; type: cell-based; details: for antiproliferative activity / toxicity, single agent: comparator inhibitors, single-agent treatment
MDA-MB-231 cells = assay: Vacuole formation; type: cell-based
PIKFYVE = PIKFYVE (Homo sapiens, UniProt Q9Y2I7); assay: PIKFYVE NanoBRET target engagement assay; type: cell-based; details: transfected HEK293T cells, 3 h
JNK2 [4] = molecular target: T1, JNK2; assay: Mass labeling of recombinant JNK2 protein; type: binding; details: room temperature, 60 min incubation; trypsin digest, CE-MS/MS
Target sequence in this assay (P45984 4-364): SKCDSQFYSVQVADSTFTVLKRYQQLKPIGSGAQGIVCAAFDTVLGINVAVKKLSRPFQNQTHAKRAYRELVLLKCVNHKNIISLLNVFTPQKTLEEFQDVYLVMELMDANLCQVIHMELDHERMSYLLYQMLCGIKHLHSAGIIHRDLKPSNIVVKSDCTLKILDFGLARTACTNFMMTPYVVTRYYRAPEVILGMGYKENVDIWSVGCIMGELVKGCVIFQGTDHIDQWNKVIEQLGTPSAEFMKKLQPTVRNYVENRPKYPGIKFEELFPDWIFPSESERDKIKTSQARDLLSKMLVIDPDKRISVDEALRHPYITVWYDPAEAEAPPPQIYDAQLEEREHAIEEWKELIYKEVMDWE

JNK2 [5] = molecular target: T1, JNK2; assay: PhosphoSens kinetic assay; type: biochemical; details: JNK1 and JNK2
Target sequence in this assay (P45984 whole entry): as the sequence (P45984 whole entry) above

JNK2 [6] = molecular target: T1, JNK2; assay: Pull-down competition assay with biotin-JNK-IN-7, JNK2; type: cell-based; details: MM.1S cells, 6 h; both JNK1 and JNK2
Target sequence in this assay (P45984 whole entry): as above

[7] = tested on: Bortezomib-resistant ANBL6 cells; assay: Antiproliferative assay, Bortezomib-resistant ANBL6; type: cell-based; details: parental ANBL6 and Bortezomib-resistant ANBL6 cells
MM.1S cells [8] = assay: Apoptosis; type: cell-based; details: PARP cleavage, caspase 3 cleavage, Annexin V/PI staining
JNK1 = JNK1 (Homo sapiens, UniProt P45983); assay: JNK1 NanoBRET target engagement assay; type: cell-based; details: HEK293T cells; compared with JNK-IN-8
[9] = tested on: HAP1 parental cells and JNK2-knockout cell lines; assay: Antiproliferative activity in HAP1 parental and JNK2-knockout cells; type: cell-based

Chain of PIKFYVE (Q9Y2I7 whole entry): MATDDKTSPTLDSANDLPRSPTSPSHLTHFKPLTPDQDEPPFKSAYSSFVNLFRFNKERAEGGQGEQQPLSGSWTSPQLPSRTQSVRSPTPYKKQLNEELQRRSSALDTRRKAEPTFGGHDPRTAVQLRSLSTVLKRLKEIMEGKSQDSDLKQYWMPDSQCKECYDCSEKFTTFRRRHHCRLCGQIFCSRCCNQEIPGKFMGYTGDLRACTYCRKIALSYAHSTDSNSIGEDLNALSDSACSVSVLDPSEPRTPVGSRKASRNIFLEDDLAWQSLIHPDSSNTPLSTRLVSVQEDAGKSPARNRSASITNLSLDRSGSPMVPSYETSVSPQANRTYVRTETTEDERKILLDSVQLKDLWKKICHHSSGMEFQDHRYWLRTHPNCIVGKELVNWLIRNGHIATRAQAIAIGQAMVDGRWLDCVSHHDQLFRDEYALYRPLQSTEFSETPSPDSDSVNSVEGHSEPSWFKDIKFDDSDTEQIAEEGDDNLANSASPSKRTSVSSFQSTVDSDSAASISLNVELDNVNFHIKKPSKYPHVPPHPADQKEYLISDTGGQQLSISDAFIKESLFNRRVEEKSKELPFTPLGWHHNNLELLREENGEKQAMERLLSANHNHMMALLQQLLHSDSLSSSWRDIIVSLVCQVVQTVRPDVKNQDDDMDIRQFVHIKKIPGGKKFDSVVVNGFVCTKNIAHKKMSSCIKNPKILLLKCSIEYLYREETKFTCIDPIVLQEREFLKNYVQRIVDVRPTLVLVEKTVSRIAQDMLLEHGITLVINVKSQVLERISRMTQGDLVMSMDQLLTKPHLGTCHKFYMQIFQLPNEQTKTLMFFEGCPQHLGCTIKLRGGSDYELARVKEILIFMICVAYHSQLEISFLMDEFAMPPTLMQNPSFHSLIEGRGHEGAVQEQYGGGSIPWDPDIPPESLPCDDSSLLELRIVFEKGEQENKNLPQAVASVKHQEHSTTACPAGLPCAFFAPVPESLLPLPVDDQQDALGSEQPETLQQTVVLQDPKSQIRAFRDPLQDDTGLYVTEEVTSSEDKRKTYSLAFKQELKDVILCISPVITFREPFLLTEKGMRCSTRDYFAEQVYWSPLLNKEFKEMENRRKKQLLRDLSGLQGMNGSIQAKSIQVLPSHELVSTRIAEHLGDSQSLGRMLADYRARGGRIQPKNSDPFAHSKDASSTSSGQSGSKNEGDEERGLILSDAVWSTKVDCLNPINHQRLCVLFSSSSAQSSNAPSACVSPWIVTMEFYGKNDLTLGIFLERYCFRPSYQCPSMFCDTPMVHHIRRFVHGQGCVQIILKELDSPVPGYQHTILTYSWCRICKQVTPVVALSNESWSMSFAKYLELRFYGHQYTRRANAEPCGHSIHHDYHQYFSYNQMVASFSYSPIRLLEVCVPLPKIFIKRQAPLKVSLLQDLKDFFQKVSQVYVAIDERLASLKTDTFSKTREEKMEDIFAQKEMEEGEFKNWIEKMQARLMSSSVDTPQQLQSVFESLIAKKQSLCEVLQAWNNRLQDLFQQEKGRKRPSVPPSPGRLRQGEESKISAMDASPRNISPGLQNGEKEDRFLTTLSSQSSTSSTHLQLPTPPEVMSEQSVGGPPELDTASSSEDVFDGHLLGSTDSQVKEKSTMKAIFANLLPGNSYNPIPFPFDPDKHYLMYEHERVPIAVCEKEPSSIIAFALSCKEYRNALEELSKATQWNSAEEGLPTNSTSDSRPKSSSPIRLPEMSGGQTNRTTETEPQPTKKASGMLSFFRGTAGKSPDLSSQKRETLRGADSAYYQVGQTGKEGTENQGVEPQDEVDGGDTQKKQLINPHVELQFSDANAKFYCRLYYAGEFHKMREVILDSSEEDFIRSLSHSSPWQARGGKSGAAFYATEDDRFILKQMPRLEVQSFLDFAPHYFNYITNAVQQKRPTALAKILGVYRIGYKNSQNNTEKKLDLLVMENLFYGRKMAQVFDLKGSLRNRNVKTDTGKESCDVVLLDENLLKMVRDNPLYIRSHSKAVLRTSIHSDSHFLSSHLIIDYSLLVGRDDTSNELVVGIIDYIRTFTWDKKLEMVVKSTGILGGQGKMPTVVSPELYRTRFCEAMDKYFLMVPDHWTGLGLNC
Chain of JNK1 (P45983 whole entry): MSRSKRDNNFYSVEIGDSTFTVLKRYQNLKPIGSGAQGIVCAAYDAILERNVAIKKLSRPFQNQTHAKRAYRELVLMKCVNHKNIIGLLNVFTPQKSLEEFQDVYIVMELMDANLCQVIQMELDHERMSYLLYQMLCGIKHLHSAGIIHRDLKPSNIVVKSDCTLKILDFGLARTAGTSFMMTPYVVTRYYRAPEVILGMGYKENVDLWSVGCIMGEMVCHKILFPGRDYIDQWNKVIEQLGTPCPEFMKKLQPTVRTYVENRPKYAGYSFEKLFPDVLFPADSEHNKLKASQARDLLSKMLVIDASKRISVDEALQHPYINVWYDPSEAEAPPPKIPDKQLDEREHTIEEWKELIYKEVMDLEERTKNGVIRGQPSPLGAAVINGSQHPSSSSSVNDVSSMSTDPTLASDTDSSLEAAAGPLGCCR

Structure (SMILES): CN(C)C/C=C/C(=O)Nc1ccc(C(=O)Nc2cccc(Nc3nccc(-c4c(-c5ccccc5)nn5ccccc45)n3)c2)cc1 [THZ-3–60-1]
selectivity JNK2 versus JNK1 (JNK2 [1]): exhibited selectivity for JNK2 versus JNK1
kinome-wide selectivity [2]: poor kinome-wide selectivity

Structure (SMILES): O[C@H]1CC[C@H](Nc2ncc3nc(Nc4c(F)cc(F)cc4F)n([C@H]4CCOC4)c3n2)CC1 [CC930]
protection from YL5084-mediated cell killing (MM.1S cells [3]; 10 μM pretreatment, MM.1S cells): did not protect
antiproliferative activity / toxicity, single agent (MM.1S cells [3]): did not exhibit antiproliferative activity even at micromolar concentrations

Structure (SMILES): C[C@H]1CN(C(=O)c2ccc(NC(=O)CCCN(C)C)cc2)C[C@H]1Nc1nccc(-c2c(-c3ccccc3)nn3ccccc23)n1 [YL5084R, 4-(Dimethylamino)-N-[4-((3S,4S)-3-methyl-4-{[4-(2-phenylpyrazolo[1,5-a]pyridin-3-yl)pyrimidin-2-yl]amino}pyrrolidine-1-carbonyl)phenyl]butanamide]
fold weaker antiproliferative activity than YL5084 (MM.1S cells [3]; multiple myeloma (MM) cell lines, GR50): 15 fold

covalent modification site on JNK2 (JNK2 [4]): exclusive modification on JNK2 Cys116
Structure (SMILES): CN(C)C/C=C/C(=O)Nc1ccc(C(=O)N2CC[C@H](Nc3nccc(-c4c(-c5ccccc5)nn5ccccc45)n3)C2)cc1 [YL2056, (S,E)-4-(Dimethylamino)-N-[4-(3-{[4-(2-phenylpyrazolo[1,5-a]pyridin-3-yl)pyrimidin-2-yl]amino}pyrrolidine-1-carbonyl)phenyl]but-2-enamide]
vacuole formation (MDA-MB-231 cells; MDA-MB-231, phenotype of PIKFYVE inhibition): induced
PIKFYVE binding in NanoBRET (PIKFYVE): binds to PIKFYVE more strongly than its reversible counterpart

potency JNK2 versus JNK1 in kinetic assay (JNK2 [5]): almost equipotent against both
Structure (SMILES): Cc1cc(NC(=O)c2cccc(NC(=O)/C=C/CN(C)C)c2)ccc1Nc1nccc(-c2cccnc2)n1 [JNK-IN-8]
engagement of JNK1 and JNK2 in pull down (JNK2 [6]): engaged both JNK1 and JNK2 at the same concentration
antiproliferative effect in ANBL6 cells [7]: minimal effect
induction of apoptosis (MM.1S cells [8]): failed to induce apoptotic cell death to the same level

Structure (SMILES): O=c1ncn2nc(Sc3ccc(F)cc3F)ccc2c1-c1c(Cl)cccc1Cl [VX745]
antiproliferative activity / toxicity, single agent (MM.1S cells [3]): not toxic

JNK1 engagement in NanoBRET (JNK1): significantly less engagement of JNK1
Structure (SMILES): C[C@H]1CN(C(=O)c2ccc(NC(=O)/C=C/CN(C)C)cc2)C[C@H]1Nc1nccc(-c2c(-c3ccccc3)nn3ccccc23)n1 [YL5084, (E)-4-(Dimethylamino)-N-[4-((3S,4S)-3-methyl-4-{[4-(2-phenylpyrazolo[1,5-a]pyridin-3-yl)pyrimidin-2-yl]amino}pyrrolidine-1-carbonyl)phenyl]but-2-enamide]
GR50 (antiproliferative) (MM.1S cells [3]; multiple myeloma (MM) cell lines, 72 h): 200 to 300 nM
vacuole formation (MDA-MB-231 cells; up to a concentration of 4 μM): did not induce vacuole formation
induction of apoptosis (MM.1S cells [8]): induced apoptosis
antiproliferative activity, parental vs JNK2-knockout [9]: equipotent antiproliferative activity
